# Measured values from patent US6603023B2 (priority 1996, dated 2003).
# Like-named read-outs stand apart in the source and are kept apart here. Marks after values point to notes of the source that are not given here.
# Tests used:
# [1] = test system: CCRF-CEM human T-cell acute lymphoblastic leukemia cell line; assay: XTT cytotoxicity (cell growth inhibition), CCRF-CEM
# Protocol: (§1) The DC-3F hamster lung fibroblast cell line and its actinomycin D-selected sublines (DC-3F/ADII and DC-3F/ADX) were obtained from the Memorial Sloan-Kettering Cancer Center (MSKCC).
# (§2) The drug-resistant cell lines were continuously cultured in the presence of the selecting agent, AD, DX, VBL or VM to maintain the drug resistant phenotypes. […] All cells were cultured in RPMI 1640-10% FBS at 37° C. 5% CO2 (see below).
# (§3) The cells were cultured at an initial density of 5×10^4 cells/mL. They were maintained in a 5% CO2-humidified atmosphere at 37° C. in RPMI-1640 medium (GIBCO-BRL, Gaithersburg, Md.) containing penicillin (100 U/mL), streptomycin ([…]) (GIBCO-BRL) and 10% heat inactivate fetal bovine serum. Culture for cell suspension (such as for CCRF-CEM, P388 and sublines), were performed by the XTT-microculture tetrazonium method (Scudiero, D. A. et al., Cancer Res. 1988, 48, 4827-4833) in duplicate in 96-well microtiter plates.
# (§4) 2′,3′-Bis(methoxy-4-nitro-5-sufophenyl)-5-[(phenylamino)carbonyl]2H-tetrazolium hyudroxide (XTT) was prepared at 1 mg/mL in prewarmed (37° C.) medium without serum. Phenazine methosulfate (PMS) and fresh XTT were mixed together to obtain 0.025 mM PMS-XTT solution (25 μL of the stock 5 mM PMS was added per 5 mL of 1 mg/mL XTT). Following a 72 h incubation, 50 μL of the assay aliquots were added to each well of the cell culture. After incubation at 37° C. for 4 h, absorbance at 450 nm and 630 nm was measured with a microplate reader (EL340, Bio-Tek Instruments, Inc., Winooski, Vt.).
# CCRF-CEM/Taxol® = assay: cells; format: cell-based, human
# Protocol: as §2, §3, §4
# CCRF-CEM/VBL100 = assay: cells; format: cell-based, human
# Protocol: as §2, §3, §4
# CCRF-CEM/VM1 = assay: cells; format: cell-based, human
# Protocol: as §2, §3, §4
# [2] = test system: DC-3F hamster lung fibroblast cell line; assay: SRB cytotoxicity, DC-3F; format: cell-based; settings: read-out: IC50
# Protocol: as §1, §2
# (§5) The cytotoxicity of the drug toward the monolayer cell cultures (such as DC-3F, MCF-7, SK-N-As and sublines) was determined in 96-well microtiter plates by the SRB method as described by Skehan and co-workers (Skehan, P., et al., J. Natl. Cancer Inst. 1990, 82, 1107-1112) for measuring the cellular protein content. Cultures were fixed with trichloroacetic acid and then stained for 30 min with 0.4% suforhodamine B dissolved in 1% acetic acid. Unbound dye was removed by acetic acid washes, and the protein-bound dye was extracted with an unbuffered Tris base (tris(hydroxy-methyl)aminomethane) for determination of absorbance at 570 nm in a 96-well microtiter plate reader. The experiments were carried out in duplicate. Each run entailed six to seven concentrations of the tested drugs. Data were analyzed with the median-effect plot (Chou, T.-C. & Talalay, P. T. (1984) Adv. Enzyme Regul. 22, 27-55) using a previously described computer program (Chou, J., & Chou T.-C. 1987, Dose-effect analysis with microcomputers: Quantitation of ED50, synergism, antagonism, low-dose risk, reception-ligand binding and enzyme kinetics, IBM-PC software and manual, Biosoft, Cambridge, U.K.).
# DC-3F/ADX = assay: cells; format: cell-based, hamster; settings: for IC50: read-out: IC50
# Protocol: as §1, §2, §5
# Concerning Table 3, experiments were carried out using the cell lines DC-3F (parent hamster lung cells), DC-3F/ADII (moderate multidrug-resistant (MDR) cells) and DC-3F/ADX (very strong MDR cells).
# murine leukemic P388/0 = assay: XTT cytotoxicity, P388/0; format: cell-based; settings: Table 1C; XTT, 72 h; read-out: IC50
# Protocol: as §1, §2, §3, §4
# P388/Adr = assay: cells; format: cell-based, murine; settings: Table 1C
# Protocol: as §2, §3, §4
# [3] = test system: human neuroblastoma SK-N-As; assay: SRB cytotoxicity, SK-N-As; format: cell-based; settings: Table 1C; SRB, 72 h; read-out: IC50
# Protocol: as §1, §2, §5
# SK-N-FI = assay: cells; format: cell-based, human; settings: Table 1C
# Protocol: as §2, §5
# MCF-7 = assay: SRB cytotoxicity, MCF-7; format: cell-based, human; settings: Table 1C; SRB, 72 h; read-out: IC50
# Protocol: as §5
# MCF-7/Adr = assay: cells; format: cell-based, human; settings: Table 1C
# Protocol: Cultures were fixed with trichloroacetic acid and then stained for 30 min with 0.4% suforhodamine B dissolved in 1% acetic acid. Unbound dye was removed by acetic acid washes, and the protein-bound dye was extracted with an unbuffered Tris base (tris(hydroxy-methyl)aminomethane) for determination of absorbance at 570 nm in a 96-well microtiter plate reader. The experiments were carried out in duplicate. Each run entailed six to seven concentrations of the tested drugs.
# [4] = Table 1A, XTT, 72 h, read-out: IC50
smiles,measurement,setting,value
"C/C(=C\c1csc(C)n1)[C@@H]1C[C@@H]2O[C@@H]2CCC[C@H](C)[C@H](O)[C@@H](C)C(=O)C(C)(C)[C@@H](O)CC(=O)O1 [Epothilone A, epothilone A]",IC50,[1],2.7 nM
same,IC50,"[1]; Table 1, XTT",3 nM
same,IC50,"[1]; Table 7, CEM",2.9 nM
same,IC50,"[1]; read-out: IC50 (A), Table 2A, parent cell line",3.2 nM
same,(C)/(A) IC50 ratio,CCRF-CEM/Taxol®,1.4
same,IC50,CCRF-CEM/Taxol®; [4],3.7 nM
same,"(B)/(A) ratio (fold resistance >1, collateral sensitivity <1)",CCRF-CEM/VBL100,(7.5)^a
same,fold resistance (cross-resistance) vs parent CCRF-CEM,CCRF-CEM/VBL100; CCRF-CEM/VBL100 MDR cells,8 fold
same,IC50,"CCRF-CEM/VBL100; Table 1, XTT, read-out: IC50",20 nM
same,(B)/(A) IC50 ratio,"CCRF-CEM/VBL100; Table 1A, CCRF-CEM/VBL100 vs CCRF-CEM",7.4
same,IC50,CCRF-CEM/VBL100; [4],20 nM
same,IC50,"CCRF-CEM/VBL100; Table 2A, MDR cell line, read-out: IC50 (B)",24 nM
same,IC50,"CCRF-CEM/VBL100; Table 7, CEM/VBL, read-out: IC50",20.3 nM
same,IC50,CCRF-CEM/VBL100; read-out: IC50,20 nM
same,"(C)/(A) ratio (fold resistance >1, collateral sensitivity <1)",CCRF-CEM/VM1,(1.06)^a
same,IC50,"CCRF-CEM/VM1; Table 1, XTT, read-out: IC50",3 nM
same,(D)/(A) IC50 ratio,"CCRF-CEM/VM1; Table 1A, CCRF-CEM/VM1 vs CCRF-CEM",2.3
same,IC50,CCRF-CEM/VM1; [4],6.1 nM
same,IC50,"CCRF-CEM/VM1; Table 2A, Topo II gene mutated cell line, read-out: IC50 (C)",3.4 nM
same,IC50,"[2]; Table 1C, SRB, 72 h",3.7 nM
same,IC50,[2]; relative potency ordering,3.6 nM
same,folds of resistance (IC50 ratio vs parent cell line),"DC-3F/ADX; Table 1C, DC-3F/ADX vs DC-3F",(14.5x)#
same,IC50,"DC-3F/ADX; Table 1C, SRB, 72 h",53 nM
same,IC50,DC-3F/ADX; relative potency ordering,60 nM
same,IC50,murine leukemic P388/0,1.8 nM
same,folds of resistance (IC50 ratio vs parent cell line),P388/Adr; P388/Adr vs P388/O,(5.3x)#
same,IC50,"P388/Adr; XTT, 72 h, read-out: IC50",1 nM
same,IC50,[3],12 nM
same,folds of resistance (IC50 ratio vs parent cell line),SK-N-FI; SK-N-FI vs SK-N-As,(1.9x)#
same,IC50,"SK-N-FI; SRB, 72 h, read-out: IC50",23 nM
same,IC50,MCF-7,3 nM
same,folds of resistance (IC50 ratio vs parent cell line),MCF-7/Adr; MCF-7/Adr vs MCF-7,(3.1x)#
same,IC50,"MCF-7/Adr; SRB, 72 h, read-out: IC50",9.4 nM
